Results reported in patent EP2949339A1, “Agonist of CD1c-restricted T cells and uses thereof” (Ospedale San Raffaele S.r.l., priority 2014, dated 2015).

Columns and labels:
[1] = system: CD1c self-reactive T cells; test: sCD1c-plate-bound T cell activation assay; assay type: cell-based, human; details: CD1c self-reactive clones DN4.99, K34A27f; GM-CSF release; Fig. 1E, 3 C
Protocol: sCD1c-plate-bound assays were performed using MaxiSorp plates (Nunc) coated with anti-BirA mAb (Nowbakht et al., 2005) to capture sCD1c and were then incubated with lipids for 6 hours. The wells were extensively washed before addition of T cells.
Recombinant soluble human CD1c tagged with BirA peptide (sCD1c), was obtained and purified using techniques similar to those previously described (Garcia-Alles et al., 2006). The following primers were used to PCR amplify the extracellular domain of human CD1c: forward XhoI 5'- […] (SEQ ID No. 3) and reverse ClaI 5'-[…] (SEQ ID No. 4). sCD1c was purified from J558-transfected cell culture supernatants by affinity chromatography using anti-CD1c mAb (10C3, BD Pharmingen).

[2] = system: CD1c self-reactive T cells; test: T cell activation assay with lipid-pulsed CD1c+ APCs (GM-CSF and/or IFN-γ release, ELISA); assay type: cell-based, human; details: same T cells; data not shown
Protocol: T cell activation assays were performed by co-culturing the indicated numbers of target cells (5x10^4/well unless otherwise indicated) with T cells (5x10^4/well) in 200µl volume in duplicate or triplicate cultures. In some experiments, mouse anti-CD1c (L161, Abcam) or mouse IgG1 isotype control mAbs were added and incubated for 30 min prior to the addition of T cells. Supernatants were collected after 24-48 hours and cytokines released by T cells (GM-CSF and/or IFN-γ) were measured by ELISA. In assays using fractionated lipids, THP1-CD1c cells (5x10^4/well) were fixed with 0.05% glutaraldehyde for 20 s and used as APCs. Fold change in cytokine release was calculated using the following formula: GM-CSF release with lipid pulsed APC / GM-CSF release with un-pulsed APC. In some experiments, normal B cells purified from PBMCs (5x10^4/well) were used as APCs without prior fixation. APCs were pulsed with lipids for 4 hours at the indicated dilutions before addition of T cells.

Substance	stimulation of T cells by lipid presented by plastic-bound sCD1c [1]	doses at which T cells were very weakly stimulated [2]
sulfatide	failed to stimulate	
lysophosphatidylethanolamine [LPE]		above 50 µg/ml
lysophosphatidic acid [LPA]		above 50 µg/ml
lysophosphatidylcholine [LPC]		above 50 µg/ml
